Results from patent US20100183524A1, “ANTIOXIDANT COMPOSITIONS FOR SOFT ORAL TISSUE AND METHODS OF FORMULATION AND USE THEREOF” (Perio Sciences, LLC, priority 2008, published 2010).

Key:
[1] = tested on: Human periodontal ligament fibroblasts (HPDL)
Procedure: Culture conditions as described in HGF were similarly employed in the HPDL cells. In this experiment, 5×10^3 cells in 100 μL of culture medium were seeded into each well of a 96-well plate. […] Bioactive antioxidant mixtures tested included: resveratrol, ferulic acid and tetrahydrocurcuminoids (RFT), phloretin, ferulic acid and resveratrol (PFR), phloretin, ferulic acid and tetrahydrocurcuminoids (PFT).
Cells were washed with PBS and treated with antioxidant mixtures (RFT, PFR, PFT) in 0.1% FBS medium (DMEM and 1% antimycotic/antiobiotic) for 24 hours.
Different ethanol concentrations (15%, 10% and 5%) were used for dose response experiments for 30 or 60 minutes.
After pretreatment with ethanol or H2O2, the cells were rinsed and treated with 10^−5M (0.4% wt/v) antioxidant mixture (RFT, PFR, PFT) for 24 hrs.
(§3) Cell viability and survival were assessed by MTS colorimetric assay (3-[4,5-dimethylthiazol-2-yl]-5-[3-carboxymethoxyphenyl]-2-[4-sulfophenyl]-2H-tetrazolium) (Promega Corp., Madison, Wis.). This quantitative assay detects living but not dead cells. […] The absorbance at 490 nm was measured using a SpectraMax microplate spectrophotometer (Molecular Devices, Sunnyvale, Calif.). […]
a. Percent viable cells were expressed as; A/B, where A is absorbance at 490 nm with antioxidant compounds (RFT, PFR, PFT) and H2O2 or Ethanol pre-treatments; B absorbance at 490 nm with 0.1% FBS (control). […]

[2] = tested on: human gingival fibroblasts (HGF)
Procedure: Human gingival tissues from healthy nonsmokers were collected with institutional review board approval and tissues were cultured in high glucose Dulbecco's modified eagles medium (DMEM), 10% FBS, and 1% antimycotic/antiobiotic. Tissues were incubated at 37° C. in a humidified gas mixture (5% CO2 and 95% air) and medium was changed every 24 hours. Human gingival fibroblasts (HGF) grew from the tissue after a week. Cells were passaged using 0.25% trypsin solutions and plated in new tissue culture flasks when confluent. Passages 3-12 were used in all of the experiments.
In this experiment, 5×10^3 cells in 100 μL of culture medium were seeded into each well of a 96-well plate. […]
as §3
Percent viable cells were expressed as; A/B, where A is absorbance at 490 nm with antioxidant compounds (RFT, PFR, PFT) and H2O2 or Ethanol pre-treatments; B absorbance at 490 nm with 0.1% FBS (control). […]

Rac-GTP in HGF cells = experiment: Rac-GTP immunofluorescence in scratch wound assay, nicotine-exposed HGF; type: cell-based, human
Procedure: (§1) Both cell types tested (HGF and HPDL) were plated at 5×10^4 cells/well in a Lab-Tek II chamber glass slide with cover (Nalge Nunc International, Rochester, N.Y.). Approximately 400 μl of cell medium suspension was added to each well. The cells were grown overnight until confluent. Cells were pretreated with nicotine (10 mM, 8 mM and 6 mM) for two hours and then treated with antioxidants (resveratrol, trans=ferulic acid, tetrahydrocurcuminoids CG™, or phloretin) in double or triple combinations at 0.4% w/v (10^−5M). Two hours later, a scratch wound assay was performed using a sterile 10 μl pipet tip.
(§2) The cells were fixed with 4% paraformaldehyde for 30 minutes and then washed with sterile phosphate buffered saline (PBS) three times. […] The secondary antibody (1:500 Alexa Fluor® 488 goat anti-mouse IgG (H+L) (Molecular Probes, Eugene, Oreg.) was incubated for two hours at room temperature. The stained cells were washed with PBS three times. The Lab-Tek II wells were removed and the cells were cover-slipped with slowfade mounting medium. Analysis of the levels of Rac-GTP at the leading edge of the wound were determined using confocal microscopy. All treatments were recorded with the same settings on a Leica SP2 microscope. All images were taken from projected z stacks of the immunolabeled cells. Intensity of Rac-GTP immunofluorescence was determined using Nikon Elements software. […]

Rac-GTP in HPDL cells = experiment: Rac-GTP immunofluorescence in scratch wound assay, nicotine-exposed HPDL; type: cell-based, human; details: nicotine 6 mM, 8 mM, 10 mM
Procedure: as §1, §2

[3] = tested on: human gingival fibroblast (HGF) cells; details: 6, 8 or 10 mM nicotine, two hours
Procedure: Cells were then treated with a solution containing either the three antioxidants described above, or a 1:1 ratio of only two antioxidants, or only a single antioxidant. Cell migration was recorded using BioStation Live Cell Imaging (Nikon Instruments, Melvile, N.Y.) every hour for ten hours, and data presented here is for 1 hour, 5 hours, or 10 hours.

ethyl alcohol [Ethanol]
cell viability (MTS) after ethanol [1]: dose dependent effect on cell viability | cell viability (MTS) after ethanol [2]: dose dependent effect on cell viability

COc1cc(/C=C/C(=O)O)ccc1O [trans-ferulic acid]
increase of Rac-GTP expression over nicotine treated cells (6 mM Nic), mean pixel intensity (Rac-GTP in HGF cells; 6 mM nicotine two hours, then antioxidants 10^−5 M, leading edge of the wound): 35%

CN1CCCC1c1cccnc1 (centres unmarked) [nicotine]
effect of nicotine on Rac-GTP expression (Rac-GTP in HGF cells; nicotine 6 mM, 8 mM, 10 mM): dose dependent decrease | effect of nicotine on Rac-GTP expression (Rac-GTP in HPDL cells): dose dependent decrease | effect of nicotine on cell migration [3]: deleterious effect on cell migration that increased with exposure to more concentrated nicotine

OO [Formulation H2O2, hydrogen peroxide]
viable cells (MTS) after H2O2 [1]: dose-dependent decrease of viable cells | viable cells (MTS) after H2O2 [2]: dose-dependent decrease of viable cells
